Structures can show the parent of a compound that is named as a salt. Where two headings read alike, the source gives them in different places.
Assays:
[1] = pharmaceutical activity of crystal forms; format: in vivo
[2] = test system: rheumatic disorders and back conditions; assay: treatment of rheumatic disorders and back conditions; format: in vivo
[3] = test system: intestinal motility; assay: inflammatory bowel disorders / intestinal motility; format: in vivo; details: inflammatory bowel disorder
[4] = blood-brain barrier passage; details: due to its structure
[5] = test system: inflammation-related hyperalgesias; assay: analgesic action / inflammation-related hyperalgesias; details: in vivo
[6] = test system: writhing (pain); assay: writhing test; format: in vivo; details: mice or rats
From the text: Experiments have shown that the compound according to the invention is active in the "writhing test" on mice or rats (method cf. Siegmund et al., Proc. Soc. Exp. Biol. 95, (1957), 729-731).

[7] = test system: carrageenan-induced hyperalgesia; assay: carrageenan-induced hyperalgesia model; format: in vivo; details: rats
[8] = test system: burns; assay: treatment of burns and sunburn; format: in vivo; details: heat, flames, severe sunburn
[9] = anti-inflammatory, diuretic, anticonvulsive and neuroprotective actions (familiar methods); details: in vivo
[10] = test system: neurodermatitis; assay: treatment of neurodermatitis; format: in vivo
[11] = test system: physical dependence; assay: physical dependence / dependence potential; format: in vivo
[12] = test system: allergic skin reactions; assay: treatment of allergies to the sun; format: in vivo
[13] = test system: kappa-receptors; assay: binding to kappa-receptors
[14] = side effects; details: in vivo
[15] = Solubility in water; format: physicochemical; details: at 20° C.
[16] = Solubility in methanol; format: physicochemical; details: organic solvent or mixture, at 20° C.
[17] = pKa; format: physicochemical
[18] = Solubility of crystal types in aqueous solution; format: physicochemical
[19] = format: physicochemical
Description: In the case of these two types, not only their melting behavior differs but also their storage stabilities. […] During DSC determination (DSC=Differential Scanning Calorimetry)of the crystal form of type II, on slow heating above the melting point at approximately 200° C. the crystal type IV which melts at approximately 220-226° C. crystallizes out. Crystal type IV is also detected when a melt of type II (just above 200° C.) is suddenly cooled and stored at room temperature for a period of 12 to 16 hours. […] In contrast to this, however, by seeding with seed crystals of type […] the crystal form IV is especially obtained. Additionally, the solubility of the crystal type IV in aqueous solution is lower than that of type II.

[20] = listed as N-methyl-N-[(1S)-1-phenyl-2-((3S)-3-hydroxypyrrolidin-1-yl)ethyl]-2,2-diphenylac

In the case of `CN(C(=O)C(c1ccccc1)c1ccccc1)[C@H](CN1CC[C@H](O)C1)c1ccccc1.Cl` [N-methyl-N-[(1S)-1-phenyl-2-((3S)-3-hydroxypyrrolidin-1-yl)ethyl]-2,2-diphenylacetamide hydrochloride], the “effectiveness as medicament in all indication areas” value ([1]; all types of preparation forms) is reported as “particularly effective”.

For `CN(C(=O)C(c1ccccc1)c1ccccc1)[C@H](CN1CC[C@H](O)C1)c1ccccc1` [compound according to the invention, N-methyl-N-[(1S)-1-phenyl-2-((3S)-3-hydroxypyrrolidin-1-yl)ethyl]-2,2-diphenylacetamide], the “efficacy in rheumatic disorders and back conditions” value ([2]; in vivo) was “particularly effective”, the “normal motility of the gastrointestinal tract” value ([2]; rheumatic disorders and back conditions) was “not adversely affected” and the intestinal motility normalization [3] was “suitable for normalizing disorders of the intestinal motility”. The intestinal motility normalization [3, 20] was “normalizes the motility of the intestine or sets it in motion again”, the blood-brain barrier passage [4] was “cannot pass through the blood-brain barrier” and the analgesic actions [5] was “particularly good analgesic actions”. The “antagonism of inflammation-related hyperalgesias” value [5] was “antagonize”, the “activity in the writhing test” value [6] was “active” and the “action in carrageenan-induced hyperalgesia model” value [7] was “Particularly strong actions”. For the same compound, the treatment of burns [8] was “particularly suitable in the treatment of burns”, the anti-inflammatory action [9] was “pronounced” and the anticonvulsive action [9] was “pronounced”. The diuretic action [9] was “pronounced”, the neuroprotective action [9] was “pronounced” and the “dependence of pharmaceutical activity on crystal form” value ([1]; in vivo) was “relatively independent of the crystal form”. The “inflammatory reactions, neurodermatitis” value [10] was “favorably influenced”, the “itching, neurodermatitis” value [10] was “the itching of the skin in this disorder subsides” and the dependence potential ([11]; attributed to no blood-brain barrier passage) was “no dependence potential”. The “tendency to physical dependence” value ([11]; in vivo) was “no or only a small tendency to physical dependence”, the allergic skin reactions [12] was “allergic skin reactions rapidly fade” and the “itching, allergies to the sun” value [12] was “rapidly subsides”. For the same compound, the affinity to kappa-receptors [13] was “high affinity”, the side effects [14] was “no side effects have been found which would restrict the use” and the side effects [14, 20] was “without causing noticeable side effects”.

With `CN(C(=O)C(c1ccccc1)c1ccccc1)[C@H](CN1CC[C@H](O)C1)c1ccccc1.Cl` [Example 1, N-methyl-N-[(1S)-1-phenyl-2-((3S)-3-hydroxypyrrolidin-1-yl)ethyl]-2,2-diphenylacetamide hydrochloride] the solubility [15] was 7.6 mg/mL, the solubility [16] was 42.6 mg/mL and the pKa [17] was 7.4. The “solubility of crystal type IV relative to the solubility of type II” value [18] was 45% to 70.

With `CN(C(=O)C(c1ccccc1)c1ccccc1)[C@H](CN1CC[C@H](O)C1)c1ccccc1` [type I, N-methyl-N-[(1S)-1-phenyl-2-((3S)-3-hydroxypyrrolidin-1-yl)ethyl]-2,2-diphenylacetamide] the “conversion of solvate type I” value ([19]; slow heating releases solvent) was “readily converted into another crystal type”.

Compound `CN(C(=O)C(c1ccccc1)c1ccccc1)[C@H](CN1CC[C@H](O)C1)c1ccccc1` [Comparison Example, N-methyl-N-[(1S)-1-phenyl-2-((3S)-3-hydroxypyrrolidin-1-yl)ethyl]-2.2-diphenylacetamide hydrochloride] has a solubility [15] of 11.6 mg/mL, a solubility [16] of 63.1 mg/mL and a pKa ([17]; read-out: pKa) of 7.4. For the same compound, the “stability of crystal form” value [19] was “metastable”, the “storage at high humidity” value ([19]; atmospheric humidity approximately 73% to 95%) was “A form designated as type III is obtained” and the “storage at 170° C.” value ([19]; drying oven at 170° C.) was “a partial conversion into type IV was detected”. The “seven months' storage” value ([19]; seven months, room temperature) was “a start of conversion to the thermostable crystal modification IV”.

— patent US6060504A, “N-methyl-N-[(1S)-1-phenyl-2-(3S)-hydroxypyrrolidin-1-yl)ethyl]-2 -2-diphenylacetamide” (priority 1995, dated 2000)
